Laboratory results as given in paper PMC8667885, “2-Aminobenzoxazole-appended coumarins as potent and selective inhibitors of tumour-associated carbonic anhydrases” (Journal of Enzyme Inhibition and Medicinal Chemistry, 2021).

Experiments:
[1] = system: panel of six human solid tumour cell lines; test: antiproliferative assay, whole panel of tumour cell lines; type: cell-based
Description: (§1) The antiproliferative assays were conducted following the protocol of the US National Cancer Institute (NCI), with minor modifications.
(§2) The coumarin-benzoxazole hybrids were also tested as antiproliferative agents against a panel of six human solid tumour cell lines (Table 2): A549 (non-small cell lung), HBL-100 (breast), HeLa (cervix), SW1573 (non-small cell lung) as examples of drug-sensitive lines, and T-47D (breast) and WiDr (colon) as multidrug-resistant lines. A non-tumour cell line (BJ-hTert, human fibroblasts) was also used for analysing the selectivity. Chemotherapeutic agents 5-fluorouracyl (5-FU) and cisplatin (CDDP) were included in the study as drug references.

WiDr (colon) = test: antiproliferative assay (NCI protocol), WiDr; type: cell-based, human; conditions: antiproliferative activity, multidrug-resistant line
Description: as §1, §2

human CA VII = human CA VII (Homo sapiens, UniProt P43166); test: stopped-flow CO2 hydrase assay, CA VII
Sequence of human CA VII (P43166 whole entry): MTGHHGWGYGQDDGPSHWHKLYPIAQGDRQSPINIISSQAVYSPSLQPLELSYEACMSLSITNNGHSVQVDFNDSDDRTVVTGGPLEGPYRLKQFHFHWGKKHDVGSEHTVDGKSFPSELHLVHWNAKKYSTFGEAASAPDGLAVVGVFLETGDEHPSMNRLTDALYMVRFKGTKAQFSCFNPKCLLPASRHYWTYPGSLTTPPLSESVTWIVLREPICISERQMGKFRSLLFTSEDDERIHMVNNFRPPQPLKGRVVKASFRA
Description: (§3) A stopped-flow CO2 hydrase assay has been employed as reported earlier[10–12].

human CA II = human CA II (Homo sapiens, UniProt P00918); test: stopped-flow CO2 hydrase assay, CA II
Description: as §3

[2] = system: A549 (non-small cell lung); test: antiproliferative assay (NCI protocol), A549; type: cell-based, human; conditions: antiproliferative activity
Description: as §1, §2

human CA IV = human CA IV (Homo sapiens, UniProt P22748); test: stopped-flow CO2 hydrase assay, CA IV
Sequence of human CA IV (P22748 19-312): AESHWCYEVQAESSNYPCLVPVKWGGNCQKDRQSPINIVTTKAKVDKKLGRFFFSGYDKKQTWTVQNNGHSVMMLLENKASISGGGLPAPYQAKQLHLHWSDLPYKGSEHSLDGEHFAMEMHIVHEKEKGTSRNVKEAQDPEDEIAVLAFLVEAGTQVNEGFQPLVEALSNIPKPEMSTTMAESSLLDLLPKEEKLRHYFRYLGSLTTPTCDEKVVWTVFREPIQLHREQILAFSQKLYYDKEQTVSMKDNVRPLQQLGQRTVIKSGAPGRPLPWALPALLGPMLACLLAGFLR
Description: as §3

[3] = system: BJ-hTert, human fibroblasts; test: antiproliferative assay (NCI protocol), non-tumour BJ-hTert; type: cell-based; conditions: for GI50: non-tumour cell line, human fibroblasts; for activity against the non-tumour cell line (in words): BJ-hTert
Description: as §1, §2

T-47D (breast) = test: antiproliferative assay (NCI protocol), T-47D; type: cell-based, human; conditions: antiproliferative activity, multidrug-resistant line
Description: as §1, §2

human CA I = human CA I (Homo sapiens, UniProt P00915); test: stopped-flow CO2 hydrase assay, CA I
Sequence of human CA I (P00915 whole entry): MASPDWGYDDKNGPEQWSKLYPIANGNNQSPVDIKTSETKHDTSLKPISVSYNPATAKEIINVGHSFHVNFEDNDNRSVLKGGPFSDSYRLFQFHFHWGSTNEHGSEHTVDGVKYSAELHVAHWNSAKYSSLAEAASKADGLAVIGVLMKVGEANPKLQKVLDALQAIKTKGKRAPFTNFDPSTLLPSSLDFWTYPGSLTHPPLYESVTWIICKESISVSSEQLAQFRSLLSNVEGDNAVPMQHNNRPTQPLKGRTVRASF
Description: as §3

HBL-100 (breast) = test: antiproliferative assay (NCI protocol), HBL-100; type: cell-based, human; conditions: antiproliferative activity
Description: as §1, §2

[4] = system: SW1573 (non-small cell lung); test: antiproliferative assay (NCI protocol), SW1573; type: cell-based, human; conditions: antiproliferative activity
Description: as §1, §2

HeLa (cervix) = test: antiproliferative assay (NCI protocol), HeLa; type: cell-based, human; conditions: antiproliferative activity
Description: as §1, §2

human CA XII = human CA XII (Homo sapiens, UniProt O43570); test: stopped-flow CO2 hydrase assay, CA XII; conditions: for Selectivity ratio I/XII: ratio of Ki CA I / CA XII; for Selectivity ratio II/XII: ratio of Ki CA II / CA XII
Sequence of human CA XII (O43570 25-354): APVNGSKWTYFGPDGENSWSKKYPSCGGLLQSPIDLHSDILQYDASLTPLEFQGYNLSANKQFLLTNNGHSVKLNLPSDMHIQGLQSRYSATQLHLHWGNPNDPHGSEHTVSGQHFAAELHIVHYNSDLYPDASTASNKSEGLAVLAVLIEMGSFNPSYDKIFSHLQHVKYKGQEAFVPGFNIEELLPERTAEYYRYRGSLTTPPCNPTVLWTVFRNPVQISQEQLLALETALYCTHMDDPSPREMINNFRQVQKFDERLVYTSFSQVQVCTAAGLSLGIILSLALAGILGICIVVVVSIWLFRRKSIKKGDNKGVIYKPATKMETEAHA
Description: as §3

human CA IX = human CA IX (Homo sapiens, UniProt Q16790); test: stopped-flow CO2 hydrase assay, CA IX; conditions: for Selectivity ratio I/IX: ratio of Ki CA I / CA IX; for Selectivity ratio II/IX: ratio of Ki CA II / CA IX; for decreased activity against CA IX compared to non-substituted counterpart 8b: versus 8b
Description: as §3

Row | SMILES | GI50 (WiDr (colon); Homo sapiens, WiDr) [µM] | Ki (human CA VII) [µM] | Ki (human CA II) [µM] | GI50 ([2]; Homo sapiens, A549) [µM] | Ki (human CA IV) [µM] | GI50 ([3]; Fibroblast) [µM] | GI50 (T-47D (breast); Homo sapiens, T47D) [µM] | Ki (human CA I) [µM] | GI50 (HBL-100 (breast); Homo sapiens, HBL-100) [µM] | GI50 ([4]; Homo sapiens, SW1573) [µM] | GI50 (HeLa (cervix); Homo sapiens, HeLa) [µM] | Ki (human CA XII) [µM] | Selectivity ratio I/XII (human CA XII) | Selectivity ratio II/XII (human CA XII) | Ki (human CA IX) [µM] | Selectivity ratio I/IX (human CA IX) | Selectivity ratio II/IX (human CA IX) | activity against the non-tumour cell line (in words) [3] | also measured
1 | Cc1ccc2oc(NCCCCCOc3ccc4c(C)cc(=O)oc4c3)nc2c1 [Compound 8g] | > 100 | > 10 | > 10 | > 100 | 0.762 | > 100 | > 100 | > 10 | > 100 | > 100 | > 100 | 0.0673 | >148.6 | >148.6 | 0.417 | >24.0 | >24.0 |  | antiproliferative activity against all cell lines (in words) [1]: completely abolished activity against all cell lines; decreased activity against CA IX compared to non-substituted counterpart 8b (human CA IX): 6 fold
2 | Cc1cc(=O)oc2cc(OCCCCCNc3nc4ccccc4o3)ccc12 [Compound 8b] | 33 ± 1 | > 10 | > 10 | 15 ± 6 | 0.95 | > 100 | 38 ± 10 | > 10 | 49 ± 6 | 33 ± 4 | 39 ± 1 | 0.0845 | >118.3 | >118.3 | 0.0707 | >141.4 | >141.4 |  | 
3 | [NH2][Pt]([NH2])([Cl])[Cl] [CDDP, cisplatin, reference compound] |  |  |  |  |  |  |  |  |  |  |  |  |  |  |  |  |  |  | GI50 (WiDr (colon)): 26 ± 4 µM; GI50 [2]: 4.9 ± 0.2 µM; GI50 [3]: 14 ± 2 µM; GI50 (T-47D (breast)): 17 ± 3 µM; GI50 (HBL-100 (breast)): 1.9 ± 0.2 µM; GI50 [4]: 2.7 ± 0.4 µM; GI50 (HeLa (cervix)): 1.8 ± 0.5 µM
4 | Cc1cc(=O)oc2cc(OCCCCCCNc3nc4ccccc4o3)ccc12 [Compound 8c] | > 100 | > 10 | > 10 | 8.3 ± 1.6 | 0.984 | > 100 | > 100 | > 10 | > 100 | > 100 | 96 ± 7 | 0.0651 | >153.6 | >153.6 | 0.0823 | >121.5 | >121.5 |  | 
5 | Cc1cc(=O)oc2cc(OCCCCCNc3nc4cc(S(N)(=O)=O)ccc4o3)ccc12 [Compound 8j] | 29 ± 9 | 0.381 | 0.516 | 13 ± 3 | 3.47 | > 100 | 34 ± 8 | 0.806 | 27 ± 8 | 29 ± 8 | 21 ± 7 | 0.0506 | 15.9 | 10.2 | 0.0907 | 8.9 | 5.7 |  | 
6 | O=c1[nH]cc(F)c(=O)[nH]1 [5-Fluorouracil, reference compound] | 49 ± 7 |  |  | 2.2 ± 0.3 |  | 5.5 ± 0.5 | 43 ± 16 |  | 4.4 ± 0.7 | 3.3 ± 1.2 | 16 ± 5 |  |  |  |  |  |  |  | 
7 | Cc1c(C)c2ccc(OCCCCCCNc3nc4ccccc4o3)cc2oc1=O [Compound 8d] | > 100 | > 10 | > 10 | 15 ± 3 | 0.802 | > 50 | > 100 | > 10 | 53 ± 14 | 20 ± 3 | 29 ± 8 | 0.0698 | >143.3 | >143.3 | 0.0645 | >155.0 | >155.0 | weak activity | 
8 | Cc1cc(=O)oc2cc(OCCCCCNc3nc4cc(-c5ccccc5)ccc4o3)ccc12 [Compound 8i] | 78 ± 38 | > 10 | > 10 | 41 ± 20 | 6.27 | 25 ± 6 | > 100 | > 10 | 30 ± 9 | 60 ± 4 | 28 ± 13 | 0.0571 | >175.1 | >175.1 | 0.0332 | >301.2 | >301.2 | moderate antiproliferative agent | 
9 | Cc1cc(=O)oc2cc(OCCCNc3nc4ccccc4o3)ccc12 [Compound 8a] | 37 ± 4 | > 10 | > 10 | 32 ± 1 | 0.839 | > 50 | 33 ± 3 | > 10 | 41 ± 5 | 29 ± 4 | 30 ± 2 | 0.0844 | >118.5 | >118.5 | 0.0742 | >134.8 | >134.8 | weak activity | 
10 | Cc1cc(=O)oc2cc(OCCCCCNc3nc4cc(Br)ccc4o3)ccc12 [Compound 8h] | 29 ± 1 | > 10 | > 10 | 6.5 ± 3.1 | 0.792 | > 100 | 32 ± 7 | > 10 | 23 ± 5 | 14 ± 1 | 16 ± 1 | 0.0807 | >123.9 | >123.9 | 0.757 | >13.2 | >13.2 |  | decreased activity against CA IX compared to non-substituted counterpart 8b (human CA IX): 11 fold
